Measured values published in US6576619B2 (CV Therapeutics, Inc., priority 1999, dated 2003).

What was measured:
[1] = system: Rat Heart Rate; assay: Effect on rat heart rate (telemetry) after administration of pro-drug; type: in vivo, Sprague Dawley rats; parameters: key to Effect on Heart Rate: +++: Heart Rate decreased by 100-150 BPM; ++: Heart Rate decreased by 50-100 BPM; +: Heart rate decreased by 50 BPM; =/−: No reproducible effect on Heart Rate.; −: No effect on Heart Rate; conditions: for Effect on Heart Rate: rat, oral gavage, 500 μGram dose, average of 3-6 rats
Description: Adult male and female Sprague Dawley rats were implanted with transducer/emitter modules of the Data Science Telemetry system (St. Paul, Minn.) to allow continuous monitoring of heart rate (HR). At the start of the experiment, basal HR was determine for 1 hour prior to gavage. A 500 μg dose of compounds prepared according to Examples 1-4 was administered to by oral gavage. The compounds were each prepared as stock solutions in DMSO and diluted at least 1:1000 in water for gavage. Following administration, HR was determined every five minutes. In these experiments, 3-6 rats were used to test each compounds. An average of the HR results are reported in Table 1, below and in FIGS. 1A, 2A, 3A and 4A.
Compound 1, identified above is an A1 Agonist. […] Thus, this in vivo assay is a measure of effect on heart rate following the oral administration of a pro-drug of a potent adenosine A1 agonist. The plasma concentrations of compound 1 was determined over time by cannulating the jugular of a separate specimen for subsequent blood collection. After a 24 hour recovery period, a pre-dose baseline HR as determined followed by gavage or IP injection of a compound being tested. Blood samples were taken and the concentration of compound 1 in the plasma was determined using LC/MS/MS methodologies.

[2] = system: Rat Heart Rate; assay: as above; type: in vivo, Sprague Dawley rats; conditions: for decrease in heart rate: oral gavage, dose of 0.5 mg/kg
[3] = target: T1, adenosine A1 (Homo sapiens, UniProt P30542); conditions: from Snowdy et al. abstract and WO 98/08855; cited from earlier work
T1 sequence (P30542 1-326): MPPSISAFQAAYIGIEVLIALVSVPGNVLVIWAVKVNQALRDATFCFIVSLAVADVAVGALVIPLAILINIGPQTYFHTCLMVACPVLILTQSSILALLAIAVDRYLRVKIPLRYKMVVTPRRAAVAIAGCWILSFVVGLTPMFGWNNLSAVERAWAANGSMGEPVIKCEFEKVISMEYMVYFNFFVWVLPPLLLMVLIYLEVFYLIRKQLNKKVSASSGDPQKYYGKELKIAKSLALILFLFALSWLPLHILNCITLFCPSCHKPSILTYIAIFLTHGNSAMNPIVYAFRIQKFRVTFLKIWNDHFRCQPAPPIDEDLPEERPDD

SMILES | Effect on Heart Rate [1] | further results
O=C(Cc1ccccc1)OC[C@H]1OC(n2cnc3c(N[C@@H]4CCOC4)ncnc32)[C@H](OC(=O)Cc2ccccc2)[C@@H]1OC(=O)Cc1ccccc1 (stereo partly drawn) [Compound 13, (5-{6-[((3R)oxolan-3-yl)amino]purin-9-yl}(2R, 3R, 4R)-3,4-bis(2-phenylethanoyloxy)oxolan-2-yl)methyl 2-phenylethananoate] | − | 
CC(=O)OC[C@H]1OC(n2cnc3c(NC4CCOC4)ncnc32)[C@H](OC(=O)C2CCCC2)[C@@H]1OC(=O)C1CCCC1 (stereo partly shown) [Compound 16] | + (Heart rate decreased by 50 BPM) | 
O=C(OC[C@H]1OC(n2cnc3c(N[C@@H]4CCOC4)ncnc32)[C@H](OC(=O)C2CCCC2)[C@@H]1OC(=O)C1CCCC1)C1CCCC1 (stereo partly drawn) [Compound 8, 2-{6-[((3R)oxolan-3-yl)amino]purin-9-yl}(3R, 4R, 5R)-4-cyclopentylcarbonyloxy-5-(cyclopentylcarbonyloxymethyl)oxolan-3-yl cyclopentanecarboxylate] | +++ (Heart Rate decreased by 100-150 BPM) | decrease in heart rate ([2]; rats): 100-150 beats per minute
CC(=O)OC[C@H]1OC(n2cnc3c(N[C@@H]4CCOC4)ncnc32)[C@H](OC(C)=O)[C@@H]1OC(C)=O (stereo partly drawn) [Compound 2, (5-{6-[((3R)oxolan-3-yl)amino]purin-9-yl}(2R, 3R, 4R)-3,4-diacetyloxyoxolan-2-yl)methyl acetate] | +++ (Heart Rate decreased by 100-150 BPM) | reversibility of effect on heart rate by theophylline ([2]; rats, oral gavage 0.5 mg/kg, then theophylline 7.5 mg/kg): reversible; decrease in heart rate ([2]; rats): 100-150 beats per minute
CC(=O)O[C@@H]1[C@@H](COC(=O)C(C)C)OC(n2cnc3c(N[C@@H]4CCOC4)ncnc32)[C@@H]1OC(C)=O (stereo partly drawn) [Compound 19, (5-{6-[((3R)oxolan-3-yl)amino]purin-9-yl}(2R, 3R, 4R)-3,4-diacetyloxyoxolan-2-yl)methyl 2-methylpropanoate] | +++ (Heart Rate decreased by 100-150 BPM) | decrease in heart rate ([2]; rats): 100-150 beats per minute
O=C(Cc1ccc([N+](=O)[O-])cc1)OC[C@H]1OC(n2cnc3c(N[C@@H]4CCOC4)ncnc32)[C@H](OC(=O)Cc2ccc([N+](=O)[O-])cc2)[C@@H]1OC(=O)Cc1ccc([N+](=O)[O-])cc1 (stereo partly shown) [Compound 11] | − | 
CC(=O)O[C@@H]1[C@H](OC(C)=O)[C@@H](COC(=O)[C@@H](N)C(C)C)O[C@H]1n1cnc2c(N[C@@H]3CCOC3)ncnc21 [Compound 21, (5-{6-[((3R)oxolan-3-yl)amino]purin-9-yl}(2R, 3R, 4R)-3,4-diacetyloxyoxolan-2-yl)methyl (2S)-2-amino-3-methylbutanoate] | + (Heart rate decreased by 50 BPM) | 
CCC(=O)OC[C@H]1OC(n2cnc3c(N[C@@H]4CCOC4)ncnc32)[C@H](OC(=O)CC)[C@@H]1OC(=O)CC (stereo partly drawn) [Compound 7, (2-{6-[((3R)oxolan-3-yl)amino]purin-9-yl}(3R, 4R, 5R)-4-propanoyloxy-5-(propanoyloxymethyl)oxolan-3-yl propanoate] | + (Heart rate decreased by 50 BPM) | 
O=C(COCc1ccccc1)OC[C@H]1OC(n2cnc3c(N[C@@H]4CCOC4)ncnc32)[C@H](OC(=O)COCc2ccccc2)[C@@H]1OC(=O)COCc1ccccc1 (stereo partly drawn) [Compound 10, (5-{6-[((3R)oxolan-3-yl)amino]purin-9-yl}(2R, 3R, 4R)-3,4-bis[2-(phenylmethoxy)acetyloxy]oxolan-2-yl)methyl 2-(phenylmethoxy)acetate] | + (Heart rate decreased by 50 BPM) | 
CC(C)[C@H](N)C(=O)OC[C@H]1O[C@@H](n2cnc3c(N[C@@H]4CCOC4)ncnc32)[C@H](O)[C@@H]1O [Compound 28, (5-{6-[((3R)oxolan-3-yl)amino]purin-9-yl}(2R, 3S, 4R)-3,4-dihydroxyoxolan-2-yl)methyl (2S)-2-amino-3-methylbutanoate] | − | 
CC(C)C(=O)O[C@@H]1[C@@H](COC(=O)C2CCCC2)OC(n2cnc3c(N[C@@H]4CCOC4)ncnc32)[C@@H]1OC(=O)C(C)C (stereo partly drawn) [Compound 17, 2-{6-[((3R)oxolan-3-yl)amino]purin-9-yl}(3R, 4R, 5R)-5-(cyclopentylcarbonyloxymethyl)-4-(2-methylpropanoyloxy)oxolan-3-yl 2-methylpropanoate] | − | 
CCCC(=O)OC[C@H]1OC(n2cnc3c(N[C@@H]4CCOC4)ncnc32)[C@H](OC(=O)CCC)[C@@H]1OC(=O)CCC (stereo partly drawn) [Compound 4, (5-{6-[((3R)oxolan-3-yl)amino]purin-9-yl}(2R, 3R, 4R)-3,4-dibutanoyloxyoxolan-2-yl)methyl butanoate] | + (Heart rate decreased by 50 BPM) | 
CC(=O)OC[C@H]1OC(n2cnc3c(N[C@@H]4CCOC4)ncnc32)[C@H](O)[C@@H]1O (stereo partly drawn) [Compound 34, (5-{6-[((3R)oxolan-3-yl)amino]purin-9-yl}(3S, 2R, 4R)-3,4-dihydroxyoxolan-2-yl)methyl acetate] | − | 
NCC(=O)OC[C@H]1OC(n2cnc3c(N[C@@H]4CCOC4)ncnc32)[C@H](OC(=O)CN)[C@@H]1OC(=O)CN (stereo partly drawn) [Compound 12, 2-{6[((3R)oxolan-3-yl)amino]purin-9-yl}(3R, 4R, 5R)-4-(2-aminoacetyloxy)-5-[(2-aminoacetyloxy)methyl]oxolan-3-yl 2-aminoacetate] | − | 
CC(=O)O[C@@H]1[C@@H](COC(=O)C2CCCC2)OC(n2cnc3c(N[C@@H]4CCOC4)ncnc32)[C@@H]1OC(C)=O (stereo partly drawn) [Compound 18, 2-{6-[((3R)oxolan-3-yl)amino]purin-9-yl}(3R, 4R, 5R)-4-acetyloxy-5-(cyclopentylcarbonyloxymethyl)oxolan-3-yl acetate] | + (Heart rate decreased by 50 BPM) | 
CC(=O)OC[C@H]1OC(n2cnc3c(N[C@@H]4CCOC4)ncnc32)[C@H](OC(=O)C(C)C)[C@@H]1OC(=O)C(C)C (stereo partly drawn) [Compound 15, 2-{6-[((3R)oxolan-3-yl)amino]purin-9-yl}(3R, 4R, 5R)-5-(acetyloxymethyl)-4-(2-methylpropanoyloxy)oxolan-3-yl 2-methylpropanoate] | +++ (Heart Rate decreased by 100-150 BPM) | decrease in heart rate ([2]; rats): 100-150 beats per minute
O=C(OC[C@H]1OC(n2cnc3c(N[C@@H]4CCOC4)ncnc32)[C@H](OC(=O)c2cccnc2)[C@@H]1OC(=O)c1cccnc1)c1cccnc1 (stereo partly drawn) [Compound 14, (5-{6-[((3R)oxolan-3-yl)amino]purin-9-yl}(2R, 3R, 4R)-3,4-di(3-pyridylcarbonyloxy)oxolan-2-yl)methyl pyridine-3-carboxylate] | + (Heart rate decreased by 50 BPM) | 
CC(C)C(=O)OC[C@H]1OC(n2cnc3c(N[C@@H]4CCOC4)ncnc32)[C@H](OC(=O)C(C)C)[C@@H]1OC(=O)C(C)C (stereo partly drawn) [Compound 6, (5-{6-[((3R)oxolan-3-yl)amino]purin-9-yl}(2R, 3R, 4R)-3,4-bis(2-methylpropanoyloxy)oxolan-2-yl)methyl 2-methylpropanoate] | ++ (Heart Rate decreased by 50-100 BPM) | 
CCOCC(=O)OC[C@H]1OC(n2cnc3c(N[C@@H]4CCOC4)ncnc32)[C@H](OC(=O)COCC)[C@@H]1OC(=O)COCC (stereo partly drawn) [Compound 9, 2-{6-[((3R)oxolan-3-yl)amino]purin-9-yl}(3R, 4R, 5R)-4-(2-ethoxyacetyloxy)-5-[(2-ethoxyacetyloxy)methyl]oxolan-3-yl 2-ethoxyacetate] | ++ (Heart Rate decreased by 50-100 BPM) | 
OC[C@H]1O[C@@H](n2cnc3c(N[C@@H]4CCOC4)ncnc32)[C@H](O)[C@@H]1O [Compound 1] |  | effect on heart rate of the sinus rhythm ([2]; rat, IP, 0.025 mg): lowers the heart rate; adenosine A1 agonist activity [3]: potent, selective adenosine A1 agonist
CC(C)C(=O)OC[C@H]1OC(n2cnc3c(NC4CCOC4)ncnc32)[C@H](OC(=O)C2CCCC2)[C@@H]1OC(=O)C1CCCC1 (stereo partly shown) [Compound 20] | − | 
CC(=O)O[C@@H]1[C@@H](CO)OC(n2cnc3c(N[C@@H]4CCOC4)ncnc32)[C@@H]1OC(C)=O (stereo partly drawn) [Compound 31, 2-{6-[((3R)oxolan-3-yl)amino]purin-9-yl}(3R, 4R, 5R)-4-acetyloxy-5-(hydroxymethyl)oxolan-3-yl acetate] |  | activity upon oral dosing in rats ([1]; rats, oral dosing, compared with the triple pro-drugs (Table 1)): lower activity
